| SMILES | melting point [°C] |
| --- | --- |
| CC(=O)SC(CC(=O)c1ccccc1Cl)C(=O)O (configuration not stated) | 115 to 116 |
| COc1cc2c(=O)c(S(C)=O)cn(C)c2cc1Cl (configuration not stated) | 263 to 265 |
| CC(OCc1cc2nc(C(F)(F)F)ccc2n1S(=O)(=O)c1ccc2ncsc2c1)C(=O)O (configuration not stated) | 124 |
| C=CCOc1ccc2c(=O)c(C)c(-c3ccccc3)oc2c1C(=O)C=Cc1cccc(OC)c1 | 90 to 92 |
| COc1ccc(C(=O)Nc2ccc3ccc(Oc4ccc(Cl)c(Cl)c4)nc3n2)cc1 | 180 |
| c1cnc2c(c1)ncn2CCCCc1nnnn1C1CCCCC1 | 94 to 95 |
| OC1CSC(Oc2cccc(-c3ccncc3)n2)C(O)C1O (configuration not stated) | 178 |
| O=[N+]([O-])c1ccc(Cl)c(O)c1 | 115 to 117 |
| Fc1ccccc1-c1nc2ncccc2o1 | 126 to 127 |
| CN1CCc2c(Br)ccc([N+](=O)[O-])c2C1 | 85 to 87 |
| C=CCNc1nc(NCC=C)nc(N(CCCCCCN(c2nc(NCC=C)nc(NCC=C)n2)C2CC(C)(C)NC(C)(C)C2)C2CC(C)(C)NC(C)(C)C2)n1 | 161 to 163 |
| CNCc1ccsc1CC(=O)O | 181 to 182 |
| CCOP(=O)(O)Cc1nnc2c(=O)[nH]c3cc(C(F)(F)F)ccc3n12 | 276 to 280 |
| CCOn1c(C)nc(N2CCc3ccccc3CC2)c(C#N)c1=O | 149 to 152 |
| Cc1ccc(OC(C)C)c(-c2cc(=O)c3cc(C(=O)O)ccc3o2)c1 | 209 to 210 |
| CCOC(=O)CCc1c(C)nc(SCc2ccc(OC)cc2)n1C | 63 |
| CS(=O)(=O)c1ccc(-c2cnn(CC(F)(F)F)c(=O)c2-c2ccc(F)cc2)cc1 | 177 to 179 |
| Cc1ncc(C(=O)N2CCCCC2)s1 | 68.7 |
| Cc1c(N2C[C@@H](NC(=O)OC(C)(C)C)C3(CC3)C2)c(F)c(N)c2c(=O)c(C(=O)O)cn(C3CC3)c12 | 218 to 219 |
| Cc1c(C(=O)Cl)cccc1[N+](=O)[O-] | 68 to 70 |
| Nc1nc(NCC(c2ccccc2)c2ccc(F)cc2)c2ncn(C3OC(CO)C(O)C3O)c2n1 (configuration not stated) | 127 to 130 |

| SMILES | melting point [°C] |
| --- | --- |
| CCOC(=O)c1ccc(N)c(C(CCNC(=O)OC(C)(C)C)=NOC(C)=O)c1 | 130 to 135 |
| Nc1nc2c(Oc3ccccc3)cccc2s1 | 135 to 137 |
| COc1ccc(C2C3=C(COC3=O)Nc3ccc4cc[nH]c4c32)cc1O (configuration not stated) | 297 to 299 |
| C1=C(c2c[nH]c3ccccc23)CCN(CC2COc3ccc4occc4c3O2)C1 (configuration not stated) | 208 to 209 |
| Cn1nc(-c2ccc(Cl)cc2)c2cc3ccccc3cc21 | 157 to 159 |
| N=C(NCC1(O)COc2ccccc2OC1)Nc1ccccc1 | 184 to 187 |
| COc1ccc(OC2COc3ccc(OCc4nc5cc(F)ccc5s4)cc3C2O)cc1 (configuration not stated) | 180 to 181 |
| Cc1cc(Cl)cc(CO[C@H]2CCCN(Cc3nc(=O)[nH][nH]3)[C@H]2c2ccccc2)c1 | 227 to 228 |
| COc1cc(C(=O)OC(C)(C)C)ccc1Cn1cc(CC(C)C(=O)O)c2ccc(C(=O)NCC3CCCC3)cc21 (configuration not stated) | 195 to 197 |
| COc1ccc2c(c1O)CN(C)C(=O)C2c1cc(OC)c(OC)c(OC)c1 (single isomer, unassigned; (+)) | 193 to 196 |
| COc1ccc(N(CCCC(=O)O)C(=O)C(C)N(C(C)=O)c2ccc(OC)cc2)cc1 (configuration not stated) | 155 to 157 |
| COc1c(N2CCC(n3ccnn3)C2)c(F)cc2c(=O)c(C(=O)O)cn(C3CC3)c12 (configuration not stated) | 200 to 201 |
| CC(C)n1nc(-c2c(OCCN3C(=O)c4ccccc4C3=O)nc(N)nc2-c2ccccc2)ccc1=O | 232 |
| CC(=O)OCc1c(C(=O)C(=O)O)c2cc(-c3ccc(OC(F)(F)F)cc3)ccc2n1Cc1ccc(C)cc1 | 79 to 80 |
| CCOC(=O)C(C(=O)c1ccc(C#N)cc1)C1c2ccccc2Oc2ccccc21 (configuration not stated) | 141 |
| CS(=O)(=O)c1ccc(-c2sc(-c3ccccc3)nc2-c2ccc(F)cc2)cc1 | 188 to 189 |
| Cc1ccccc1/C=C/c1nc(COc2ccc(CCCCn3ccnc3CCO)cc2)co1 | 91 to 93 |
| COc1cccc(Cc2nc3n(-c4c(Cl)cc(Cl)cc4Cl)[nH]c(SC)c-3c(=O)n2)c1 | 245 to 248 |
| CCCCCCCCCCCCCCCCn1cccc1C1=CC(=O)c2ccccc2C1=O | 56 to 57 |
| CCOc1nc(NCc2ccco2)nc(Nc2ccc3c(c2)ncn3C)n1 | 105 to 107 |
| O=C(Cc1c[nH]c2ccccc12)NC1N=C(c2ccccc2)c2ccccc2NC1=O (racemic) | 264 to 265 |

| SMILES | melting point [°C] |
| --- | --- |
| O=C1C(O)N(c2ccc(Oc3ccccc3)cc2)C(=S)N1c1ccccc1 (configuration not stated) | 160 |
| N#Cc1cc([N+](=O)[O-])cc(C#N)c1O | 228 to 231 |
| NC(=Nc1ccc(N2CCNCC2)cc1)c1cccs1 | 180 |
| Nc1nc(-c2ccccc2Cl)nc(N2CCCCC2)n1 | 184 to 186 |
| CC(=O)Oc1ccc2nc(S(N)(=O)=O)sc2c1 | 193 to 194 |
| CN1CCC(=C2c3ccccc3C=Cc3ccc(I)cc32)CC1 | 166 to 170 |
| COc1ccc2[nH]c(SCc3nccc(N4CCCCC4)n3)nc2c1 | 145 to 147 |
| CC(O)(C#Cc1ccccc1)C(=O)O (configuration not stated) | 104 to 106 |
| CC(=O)NCCNC(=O)CCCCC1CCSS1 (configuration not stated) | 145 to 146 |
| Fc1ccc(C(=C(c2ccccc2)C(F)(F)F)c2ccc(OCCN3CCOCC3)cc2)cc1 | 95 to 96 |
| CC#CC(O)(c1ccc(C)cc1C)c1ccc(C)cc1C | 64 to 65 |
| CCCCCCCCCCCCCCCCCCOc1cc(C(=O)OC)cc([N+](=O)[O-])c1 | 64 to 66 |
| CCCCCCCCCCCCOc1ccc(C2SCCCS2)cc1OCCCCCCCCCCCC | 73 to 75 |
| CCCC12CCC3C4CCC(=O)C=C4CCC3C1CCC2OC(=O)CCc1ccccc1 (configuration not stated) | 104 to 108 |
| C=Cc1ccc(CNc2ccc(Nc3ccccc3)cc2)cc1 | 143 |
| OC1(c2ccc(Br)cc2)CCC2(CC1)OCCO2 | 156 to 158 |
| CC(NC(=S)NCC(COC(=O)C(C)(C)C)Cc1ccc(C(C)(C)C)cc1)c1ccc(NS(C)(=O)=O)cc1 (configuration not stated) | 87 |
| CCS(=O)(=O)c1ccc2cc(C(=O)O)ccc2c1 | 241 |
| C=C1COc2ccc(C(=O)OC)cc2C(Cc2ccccc2)(S(=O)(=O)c2ccccc2)C1 (configuration not stated) | 164 to 165 |
| CSC(=C[N+](=O)[O-])Nc1ccc(C#N)cc1 | 188 to 190 |
| Cc1cc(Nc2ccc(C(F)(F)F)cc2C(=O)O)n(-c2ccccn2)n1 | 228 to 229 |

Results, then the molecule that gave them:

| melting point [°C] | SMILES |
| --- | --- |
| 185 to 186 | O=C(NCCO)/C(=C/c1ccc(C(F)(F)F)c(F)c1)NC(=O)c1ccc(OCCC(F)(F)F)cc1 |
| 183 to 185 | COC(c1ccccc1)n1cnc2c(-c3cccs3)nc(Cl)nc21 (configuration not stated) |
| 249 to 250 | COc1cc(Cl)cc(C)c1Nc1nc2c(Cl)ccc(C(=O)C(C)(C)C)c2n1C |
| 177 to 178 | Cc1nc2c(N)nc3c(c2n1CCCCS(=O)(=O)C(C)C)CCCC3 |
| 262 to 264 | Oc1cc(Br)nnc1-c1ccc(Cl)cc1 |
| > 200 | NC(=O)c1cc(-c2ccc(Cl)cc2)[nH]c1Cl |
| 151 to 152 | COc1ccccc1CN1CCN(CCCOc2ccc3c(C)cc(=O)[nH]c3c2)CC1 |
| 314 to 330 | Cc1cc(Cl)c2c(ccc3nc(C)[nH]c32)n1 |
| 76 | CCCOCCOC(=O)C1=C(C)NN=C(CC)C1c1cccc([N+](=O)[O-])c1 (configuration not stated) |
| 83 to 84 | N#Cc1ccccc1CN1CCC(=O)C(C(c2ccc(F)cc2)c2ccc(F)cc2)C1 (configuration not stated) |
| 123 to 125 | CCN1C(=O)C(C)(C)C(=O)N(C)c2cc(CN(CCn3ccc4occc4c3=O)Cc3cccnc3COC)ccc21 |
| 119 to 120 | COc1ccc(-c2cc(=O)n(Cc3ccc(Cl)cc3Cl)nc2-c2ccc(OC)c(OC)c2)cc1 |
| 69.5 to 71 | OC[C@@H](O)[C@@H]1OC[C@H](O)[C@H]1O (racemic) |
| 148 to 150 | Cc1cc(C)nc(NC(=O)NS(=O)(=O)c2ccccc2C2(O)CCC2)n1 |
| 186 to 187 | CCOC(=O)c1nc(N)sc1-c1ccccn1 |
| 205 to 207 | CCOC(=O)/C=C/c1ccc(/C=C/c2c(OC)cc3c(c2OC)C(C)(C)CCC3(C)C)cc1 |
| 76 to 82 | Nc1nc(N)c2ncn(COCCOCCO)c2n1 |

| melting point [°C] | SMILES |
| --- | --- |
| 138 to 163 | O=S(=O)(Nc1ccc(Cl)cc1C1=NN(c2ccccc2)CC1)C(F)(F)F |
| 213 to 215 | Cc1cc(C(=O)N2Cc3cccn3Cc3ccccc32)ccc1NC(=O)c1ccc(Cl)cc1Cl |
| 259 to 261 | CN=C(NC#N)C1=CC(CF)(CF)Oc2ccc([N+](=O)[O-])cc21 |
| 126 to 128 | COc1cc2c(c(OC)c1)C(Cc1ccc(-c3ccccc3OC)cc1)N(C(=O)OC(C)(C)C)CC2 (configuration not stated) |
| 98 to 101 | Cc1ccc(S(=O)(=O)OCC(O)Cc2cccc(C(C)(C)C)c2O)cc1 (configuration not stated) |
| 95 | CCOC(=O)c1cc(F)c(N2CCCC2)nc1Cl |
| 227 to 229 | CCNC1CCN(c2c(F)cc3c(=O)c(C(=O)O)cn(CC)c3c2F)C1 (configuration not stated) |
| 113 to 119 | Nc1ccc2c(c1)CNC2 |
| 192 to 193 | CN(C(=O)OC(C)(C)C)c1cc(Oc2ccc(-c3nnn(C(c4ccccc4)(c4ccccc4)c4ccccc4)n3)cc2)ccc1N |
| 53 to 54 | COc1ccc(C(C)(O)c2cc(OCc3ccccc3)ccc2OC)cn1 (configuration not stated) |
| 112 to 114 | CNCC1(O)c2ccccc2C=Cc2ccccc21 |
| 81 | CCOC(=O)C(=CNN(C)C)C(=O)c1cc(F)c(F)c(F)c1F |
| 106 to 109 | CCC(CC)(CC(=O)O)C(=O)O |
| 146 | CNS(=O)(=O)c1cc(C(=O)c2c(C)oc3ccccc23)ccc1Cl |
| 188 to 190 | COc1cc(OC)nc(C2(O)OC(=O)c3c(Cl)cccc32)n1 (configuration not stated) |
| 154 to 155 | CC(C)c1cccc(C(C)C)c1NC(=O)N(Cc1ccc(N(C)C)cc1)c1ccc(C(C)(C)C)cc1 |
| 303 to 305 | O=C1CCC(N2Cc3cc(CNC(=O)c4ccccc4C(F)(F)F)ccc3C2=O)C(=O)N1 (configuration not stated) |
